Experimental data published in patent US8697739B2, “Bicyclic acetyl-CoA carboxylase inhibitors and uses thereof” (Novartis AG, priority 2010, dated 2014).
pIC50: −log10 of the molar value.

Target: T1, human acetyl-CoA carboxylase 2 (ACC2) (Homo sapiens, UniProt O00763)
T1 construct: The cDNA encoding amino acids 144 to 2458 of human acetyl-CoA carboxylase 2; made in house; host or cells: Sf9 insect cells (baculovirus, pFastBac1)
Test: Acetyl-CoA carboxylase enzyme assay (malonyl-CoA formation by LC/MS/MS)
Type: biochemical
Details: recombinant human ACC2 (aa 144-2458); read-out: IC50 ACC2
Summary of the method: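 Malonyl-CoA formation was read by LC/MS/MS MRM against a [13C3]-malonyl-CoA internal standard, after acetic acid quench. The enzyme was baculovirus/Sf9-expressed human ACC2 residues 144–2458, given 15 minutes room-temperature compound preincubation in HEPES pH 7.5 buffer with MgCl2, citrate and DTT. Substrate solution held 50 μM acetyl-CoA, 120 μM ATP and 2 mM KHCO3.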

T1 sequence (O00763 144-2458): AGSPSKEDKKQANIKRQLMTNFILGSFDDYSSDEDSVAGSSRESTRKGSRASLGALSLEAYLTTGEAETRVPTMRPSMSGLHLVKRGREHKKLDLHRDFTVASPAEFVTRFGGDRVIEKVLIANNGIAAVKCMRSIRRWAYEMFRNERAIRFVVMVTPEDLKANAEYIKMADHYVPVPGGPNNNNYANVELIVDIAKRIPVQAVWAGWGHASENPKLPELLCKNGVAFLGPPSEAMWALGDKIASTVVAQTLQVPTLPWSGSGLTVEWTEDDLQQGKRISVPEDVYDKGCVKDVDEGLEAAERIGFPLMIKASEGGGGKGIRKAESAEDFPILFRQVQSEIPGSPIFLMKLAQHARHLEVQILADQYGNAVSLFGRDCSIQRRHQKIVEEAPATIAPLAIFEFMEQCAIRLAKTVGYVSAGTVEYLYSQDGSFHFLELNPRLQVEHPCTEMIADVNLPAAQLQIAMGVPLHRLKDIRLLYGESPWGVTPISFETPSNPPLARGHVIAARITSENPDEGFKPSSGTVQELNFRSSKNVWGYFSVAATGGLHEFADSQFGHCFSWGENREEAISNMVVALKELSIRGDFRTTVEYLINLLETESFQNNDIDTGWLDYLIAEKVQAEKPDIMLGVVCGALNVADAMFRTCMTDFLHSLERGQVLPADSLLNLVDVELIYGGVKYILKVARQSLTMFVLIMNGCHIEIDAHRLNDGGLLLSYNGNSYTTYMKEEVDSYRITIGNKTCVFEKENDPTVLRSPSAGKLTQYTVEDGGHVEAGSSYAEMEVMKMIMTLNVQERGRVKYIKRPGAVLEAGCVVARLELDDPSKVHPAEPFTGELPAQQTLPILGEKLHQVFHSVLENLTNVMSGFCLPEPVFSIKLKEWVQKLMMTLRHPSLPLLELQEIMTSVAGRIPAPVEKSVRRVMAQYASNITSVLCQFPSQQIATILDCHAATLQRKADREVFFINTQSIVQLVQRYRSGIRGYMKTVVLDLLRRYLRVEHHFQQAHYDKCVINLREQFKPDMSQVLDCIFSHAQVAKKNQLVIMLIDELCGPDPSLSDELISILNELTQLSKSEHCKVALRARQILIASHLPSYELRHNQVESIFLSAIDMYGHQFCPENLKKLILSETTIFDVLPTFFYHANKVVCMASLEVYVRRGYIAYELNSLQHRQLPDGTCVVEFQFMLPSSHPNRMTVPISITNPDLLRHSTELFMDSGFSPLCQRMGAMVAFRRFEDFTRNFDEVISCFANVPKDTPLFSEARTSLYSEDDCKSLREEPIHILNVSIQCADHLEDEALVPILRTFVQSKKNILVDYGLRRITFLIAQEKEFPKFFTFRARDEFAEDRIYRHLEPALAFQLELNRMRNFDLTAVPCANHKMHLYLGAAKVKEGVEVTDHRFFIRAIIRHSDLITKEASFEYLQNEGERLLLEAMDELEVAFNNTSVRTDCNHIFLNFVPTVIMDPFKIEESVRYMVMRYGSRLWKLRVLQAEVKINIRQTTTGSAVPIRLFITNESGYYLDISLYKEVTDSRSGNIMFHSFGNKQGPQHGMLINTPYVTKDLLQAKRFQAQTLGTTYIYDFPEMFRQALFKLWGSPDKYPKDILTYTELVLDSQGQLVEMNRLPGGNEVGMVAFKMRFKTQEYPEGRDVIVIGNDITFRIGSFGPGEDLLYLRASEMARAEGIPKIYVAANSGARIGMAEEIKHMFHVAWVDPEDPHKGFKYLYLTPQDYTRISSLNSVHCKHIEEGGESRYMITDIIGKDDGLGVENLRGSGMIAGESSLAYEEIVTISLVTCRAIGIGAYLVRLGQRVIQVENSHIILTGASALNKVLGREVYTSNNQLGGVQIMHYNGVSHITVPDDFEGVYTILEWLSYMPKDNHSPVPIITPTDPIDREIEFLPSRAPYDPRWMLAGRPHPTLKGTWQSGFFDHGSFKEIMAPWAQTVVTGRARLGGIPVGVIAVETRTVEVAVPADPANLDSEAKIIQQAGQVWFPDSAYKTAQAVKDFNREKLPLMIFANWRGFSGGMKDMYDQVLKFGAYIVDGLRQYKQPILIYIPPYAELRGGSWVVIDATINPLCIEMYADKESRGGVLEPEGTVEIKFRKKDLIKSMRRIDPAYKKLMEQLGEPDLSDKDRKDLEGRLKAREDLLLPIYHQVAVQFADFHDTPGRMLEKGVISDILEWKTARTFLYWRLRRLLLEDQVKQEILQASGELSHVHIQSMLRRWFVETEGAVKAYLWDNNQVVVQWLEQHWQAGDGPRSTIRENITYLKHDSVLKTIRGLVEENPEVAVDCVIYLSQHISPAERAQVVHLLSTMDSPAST

| SMILES | pIC50 |
| --- | --- |
| O=C([C@H]1CC[C@H](NS(=O)(=O)c2ccc3[nH]c(Nc4ccccc4)nc3c2)CC1)N1CCOCC1 [Example 584, N-((1r,4r)-4-(morpholine-4-carbonyl)cyclohexyl)-2-(phenylamino)-1H-benzo[d]imidazole-5-sulfonamide] | 6.92 |
| CC(C)(C)c1nnc([C@H]2CC[C@H](NS(=O)(=O)c3ccc4[nH]c(-c5ccccc5)nc4c3)CC2)o1 [Example 585, N-((1r,4r)-4-(5-tert-butyl-1,3,4-oxadiazol-2-yl)cyclohexyl)-2-phenyl-1H-benzo[d]imidazole-5-sulfonamide] | 6.11 |
| CC(C)c1nnc([C@H]2CC[C@H](NS(=O)(=O)c3ccc4[nH]c(-c5ccccc5)nc4c3)CC2)o1 [Example 586, N-((1r,4r)-4-(5-isopropyl-1,3,4-oxadiazol-2-yl)cyclohexyl)-2-phenyl-1H-benzo[d]imidazole-5-sulfonamide] | 5.88 |
| CC(C)c1nnc([C@H]2CC[C@H](NS(=O)(=O)c3ccc4[nH]c(-c5ccc(N6CCN(C)CC6)cc5)nc4c3)CC2)o1 [Example 587, N-((1r,4r)-4-(5-isopropyl-1,3,4-oxadiazol-2-yl)cyclohexyl)-2-(4-(4-methylpiperazin-1-yl)phenyl)-1H-benzo[d]imidazole-5-sulfonamide] | 6.53 |
| CC(C)(C)c1nnc([C@H]2CC[C@H](NS(=O)(=O)c3ccc4[nH]c(-c5ccc(N6CCOCC6)cc5)nc4c3)CC2)o1 [Example 588, N-((1r,4r)-4-(5-tert-butyl-1,3,4-oxadiazol-2-yl)cyclohexyl)-2-(4-morpholinophenyl)-1H-benzo[d]imidazole-5-sulfonamide] | 6.57 |
| CC(C)c1nnc([C@H]2CC[C@H](NS(=O)(=O)c3ccc4[nH]c(-c5ccc(N6CCOCC6)cc5)nc4c3)CC2)o1 [Example 589, N-((1r,4r)-4-(5-isopropyl-1,3,4-oxadiazol-2-yl)cyclohexyl)-2-(4-morpholinophenyl)-1H-benzo[d]imidazole-5-sulfonamide] | 6.29 |
| CC(C)c1nnc(-c2ccc(NS(=O)(=O)c3ccc4[nH]c(-c5ccc(N6CCN(C)CC6)cc5)nc4c3)cc2)o1 [Example 590, N-(4-(5-isopropyl-1,3,4-oxadiazol-2-yl)phenyl)-2-(4-(4-methylpiperazin-1-yl)phenyl)-1H-benzo[d]imidazole-5-sulfonamide] | 6.37 |
| CN1CCN(c2ccc(-c3nc4cc(S(=O)(=O)Nc5ccc(-c6nnc(C(C)(C)C)o6)cc5)ccc4[nH]3)cc2)CC1 [Example 592, N-(4-(5-tert-butyl-1,3,4-oxadiazol-2-yl)phenyl)-2-(4-(4-methylpiperazin-1-yl)phenyl)-1H-benzo[d]imidazole-5-sulfonamide] | 6.38 |
| CC(C)(C)c1nnc(-c2ccc(NS(=O)(=O)c3ccc4[nH]c(-c5ccc(N6CCOCC6)cc5)nc4c3)cc2)o1 [Example 593, N-(4-(5-tert-butyl-1,3,4-oxadiazol-2-yl)phenyl)-2-(4-morpholinophenyl)-1H-benzo[d]imidazole-5-sulfonamide] | 6.00 |
| COc1ccc(Nc2nc3cc(S(=O)(=O)N[C@H]4CC[C@H](c5nnc(C(C)C)o5)CC4)ccc3[nH]2)cc1 [Example 594, N-((1r,4r)-4-(5-isopropyl-1,3,4-oxadiazol-2-yl)cyclohexyl)-2-(4-methoxyphenylamino)-1H-benzo[d]imidazole-5-sulfonamide] | 6.69 |
| CC(C)c1nnc([C@H]2CC[C@H](NS(=O)(=O)c3ccc4[nH]c(Nc5ccccc5)nc4c3)CC2)o1 [Example 595, N-((1r,4r)-4-(5-isopropyl-1,3,4-oxadiazol-2-yl)cyclohexyl)-2-(phenylamino)-1H-benzo[d]imidazole-5-sulfonamide] | 6.59 |
| COc1ccc(Nc2nc3cc(S(=O)(=O)N[C@H]4CC[C@H](c5nnc(C(C)(C)C)o5)CC4)ccc3[nH]2)cc1 [Example 596, N-((1r,4r)-4-(5-tert-butyl-1,3,4-oxadiazol-2-yl)cyclohexyl)-2-(4-methoxyphenylamino)-1H-benzo[d]imidazole-5-sulfonamide] | 6.74 |
| CC(C)(C)c1nnc([C@H]2CC[C@H](NS(=O)(=O)c3ccc4[nH]c(Nc5ccccc5)nc4c3)CC2)o1 [Example 597, N-((1r,4r)-4-(5-tert-butyl-1,3,4-oxadiazol-2-yl)cyclohexyl)-2-(phenylamine)-1H-benzo[d]imidazole-5-sulfonamide] | 6.79 |
| CC(C)c1nnc([C@H]2CC[C@H](NS(=O)(=O)c3ccc4[nH]c(Nc5ccc(N6CCN(C)CC6)cc5)nc4c3)CC2)o1 [Example 598, N-((1r,4r)-4-(5-isopropyl-1,3,4-oxadiazol-2-yl)cyclohexyl)-2-(4-(4-methylpiperazin-1-yl)phenylamino)-1H-benzo[d]imidazole-5-sulfonamide] | 7.06 |
| CC(C)c1nnc([C@H]2CC[C@H](NS(=O)(=O)c3ccc4[nH]c(Nc5ccc(N6CCOCC6)cc5)nc4c3)CC2)o1 [Example 599, N-((1r,4r)-4-(5-isopropyl-1,3,4-oxadiazol-2-yl)cyclohexyl)-2-(4-morpholinophenylamino)-1H-benzo[d]imidazole-5-sulfonamide] | 6.57 |
| CC(C)(C)c1nnc([C@H]2CC[C@H](NS(=O)(=O)c3ccc4[nH]c(Nc5ccc(N6CCOCC6)cc5)nc4c3)CC2)o1 [Example 600, N-((1r,4r)-4-(5-tert-butyl-1,3,4-oxadiazol-2-yl)cyclohexyl)-2-(4-morpholinophenylamino)-1H-benzo[d]imidazole-5-sulfonamide] | 6.86 |
| CC(C)c1nnc(-c2ccc(NS(=O)(=O)c3ccc4[nH]c(Nc5ccccc5)nc4c3)cc2)o1 [Example 601, N-(4-(5-isopropyl-1,3,4-oxadiazol-2-yl)phenyl)-2-(phenylamino)-1H-benzo[d]imidazole-5-sulfonamide] | 6.27 |
| COc1ccc(Nc2nc3cc(S(=O)(=O)Nc4ccc(-c5nnc(C(C)C)o5)cc4)ccc3[nH]2)cc1 [Example 602, N-(4-(5-isopropyl-1,3,4-oxadiazol-2-yl)phenyl)-2-(4-methoxyphenylamino)-1H-benzo[d]imidazole-5-sulfonamide] | 6.27 |
| CC(C)c1nnc(-c2ccc(NS(=O)(=O)c3ccc4[nH]c(Nc5ccc(N6CCOCC6)cc5)nc4c3)cc2)o1 [Example 603, N-(4-(5-isopropyl-1,3,4-oxadiazol-2-yl)phenyl)-2-(4-morpholinophenylamino)-1H-benzo[d]imidazole-5-sulfonamide] | 6.49 |
| COc1ccc(Nc2nc3cc(S(=O)(=O)Nc4ccc(-c5nnc(C(C)(C)C)o5)cc4)ccc3[nH]2)cc1 [Example 604, N-(4-(5-tert-butyl-1,3,4-oxadiazol-2-yl)phenyl)-2-(4-methoxyphenylamino)-1H-benzo[d]imidazole-5-sulfonamide] | 6.17 |
| CC(C)c1nnc(-c2ccc(NS(=O)(=O)c3ccc4[nH]c(Nc5ccc(N6CCN(C)CC6)cc5)nc4c3)cc2)o1 [Example 605, N-(4-(5-isopropyl-1,3,4-oxadiazol-2-yl)phenyl)-2-(4-(4-methylpiperazin-1-yl)phenylamino)-1H-benzo[d]imidazole-5-sulfonamide] | 6.86 |
| C[C@@H](NC(=O)[C@H]1CC[C@H](NS(=O)(=O)c2ccc3[nH]c(Nc4ccc(N5CCN(C)CC5)cc4)nc3c2)CC1)c1ccccc1 [Example 606, (1r,4R)-4-(2-(4-(4-methylpiperazin-1-yl)phenylamino)-1H-benzo[d]imidazole-5-sulfonamido)-N-((R)-1-phenylethyl)cyclohexanecarboxamide] | > 8.00 |
| CC(C)(C)c1nnc([C@H]2CC[C@H](NS(=O)(=O)c3ccc4[nH]c(-c5ccc(F)cc5)nc4c3)CC2)o1 [Example 607, N-((1r,4r)-4-(5-tert-butyl-1,3,4-oxadiazol-2-yl)cyclohexyl)-2-(4-fluorophenyl)-1H-benzo[d]imidazole-5-sulfonamide] | 5.96 |
| COC(=O)c1cccc(-c2nc3cc(S(=O)(=O)N[C@H]4CC[C@H](c5nnc(C(C)(C)C)o5)CC4)ccc3[nH]2)c1 [Example 608, methyl 3-(5-(N-((1r,4r)-4-(5-tert-butyl-1,3,4-oxadiazol-2-yl)cyclohexyl)sulfamoyl)-1H-benzo[d]imidazol-2-yl)benzoate] | 6.01 |
| CC(C)(C)c1nnc([C@H]2CC[C@H](NS(=O)(=O)c3ccc4[nH]c(-c5ccc(Cl)cc5)nc4c3)CC2)o1 [Example 609, N-((1r,4r)-4-(5-tert-butyl-1,3,4-oxadiazol-2-yl)cyclohexyl)-2-(4-chlorophenyl)-1H-benzo[d]imidazole-5-sulfonamide] | 5.91 |
| CC(C)(C)c1nnc([C@H]2CC[C@H](NS(=O)(=O)c3ccc4[nH]c(-c5cccc(C(=O)O)c5)nc4c3)CC2)o1 [Example 610, 3-(5-(N-((1r,4r)-4-(5-tert-butyl-1,3,4-oxadiazol-2-yl)cyclohexyl)sulfamoyl)-1H-benzo[d]imidazol-2-yl)benzoic acid] | 5.76 |
| C[C@@H](NC(=O)[C@H]1CC[C@H](NS(=O)(=O)c2ccc3[nH]c(-c4ccccc4)nc3c2)CC1)c1ccc(F)cc1 [Example 611, (1r,4R)-N-((R)-1-(4-fluorophenyl)ethyl)-4-(2-phenyl-1H-benzo[d]imidazole-5-sulfonamido)cyclohexanecarboxamide] | > 8.00 |
| O=C1NCCCC[C@@H]1NC(=O)[C@H]1CC[C@H](NS(=O)(=O)c2ccc3[nH]c(-c4ccccc4)nc3c2)CC1 [Example 612, (1r,4S)-N-((S)-2-oxoazepan-3-yl)-4-(2-phenyl-1H-benzo[d]imidazole-5-sulfonamido)cyclohexanecarboxamide] | 7.80 |
| Cc1nc2cc(S(=O)(=O)NC3CCC(c4nnc(C(C)C)o4)CC3)ccc2[nH]1 (centres unmarked) [Example 613, N-((1r,4r)-4-(5-isopropyl-1,3,4-oxadiazol-2-yl)cyclohexyl)-2-methyl-1H-benzo[d]imidazole-5-sulfonamide] | 4.40 |
